In US12162902B2, “Decarboxylase inhibitors for treating Parkinson's disease” (SAIL BIOMEDICINES, priority 2018, dated 2024):
Like-named read-outs stand apart in the source and are kept apart here.

How the values were obtained:
[1] = molecular target: Tyrosine decarboxylase (tdc) (Enterococcus faecalis (strain EnGen0310 / MMH594), UniProt P0DTQ4); test: Inhibition of tyrosine decarboxylase in vitro (dopamine formed from levodopa, LC-MS); assay type: biochemical; details: 60 min preincubation of tdc with inhibitor at room temperature, pH 5.5, 9 mM levodopa, 5 min reaction
Tyrosine decarboxylase (tdc), sequence (P0DTQ4 whole entry): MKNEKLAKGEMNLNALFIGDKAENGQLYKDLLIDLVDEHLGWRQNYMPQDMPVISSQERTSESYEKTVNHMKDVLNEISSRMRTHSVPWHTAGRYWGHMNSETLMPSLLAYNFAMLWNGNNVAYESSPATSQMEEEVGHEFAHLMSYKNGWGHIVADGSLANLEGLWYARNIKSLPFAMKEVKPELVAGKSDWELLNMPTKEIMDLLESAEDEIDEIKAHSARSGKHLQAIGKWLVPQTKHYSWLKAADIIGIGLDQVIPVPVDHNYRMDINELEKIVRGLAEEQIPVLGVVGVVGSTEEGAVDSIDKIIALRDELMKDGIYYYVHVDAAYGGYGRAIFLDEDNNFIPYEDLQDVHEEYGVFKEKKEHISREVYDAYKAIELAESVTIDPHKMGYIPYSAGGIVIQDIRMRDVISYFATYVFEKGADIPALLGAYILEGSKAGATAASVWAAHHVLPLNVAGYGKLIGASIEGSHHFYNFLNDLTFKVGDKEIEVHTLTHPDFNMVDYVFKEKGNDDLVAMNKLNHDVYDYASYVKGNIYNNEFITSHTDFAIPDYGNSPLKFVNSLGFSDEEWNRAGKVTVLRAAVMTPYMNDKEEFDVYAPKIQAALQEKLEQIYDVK
Experimental: Tyrosine decarboxylase (tdc) was obtained by following a previously published literature procedure (Science, 14 Jun. 2019: Vol. 364, Issue 6445, eaau6323). Tdc (220 nM final concentration) was thawed on ice and then mixed with pyridoxal-5-phosphate (2.2 mM final concentration) in 200 mM sodium acetate buffer, pH 5.5 optionally containing 1 mM TCEP. To this mixture was added inhibitor at a final concentration of 1000, 333, 111, 37, 12, 4.1, 1.4, or 0 μM (final volume: 100 μL; inhibitor was 100-fold concentrated in a solution of DMSO, H2O, or DMSO:H2O (1/1 v/v)). The protein-inhibitor mixture was incubated at room temperature for 60 min. 6 μL of this mixture was then withdrawn from each solution and mixed with 54 μL of 10 mM levodopa in 200 mM sodium acetate buffer pH 5.5. The final concentration of the reaction was 22 nM tdc, 220 μM pyridoxal-5-phosphate, 9 mM levodopa in 200 mM sodium acetate buffer pH 5.5 with 0-100 μM inhibitor. The reaction was proceeded for 5 min at room temperature before quenching by addition of 540 μL acetonitrile containing 0.1 (v/v) formic acid supplemented with 200 nM tolbutamide as an internal standard. The reactions were centrifuged (3,000 g, 10 min), and then 100 μL of each supernatant was transferred to a fresh plate. 100 μL of acetonitrile containing 0.1% (v/v) formic acid supplemented with 200 nM tolbutamide was added. An external standard curve containing 0-150 μM dopamine was prepared in the exact same manner.
Dopamine formed in each reaction was quantified by using an Agilent 6470 triple quadrupole mass spectrometer equipped with an Acquity UPLC. Mobile phase A consisted of H2O containing 10 mM ammonium formate, pH 3.0 and supplemented with 0.1% (v/v) formic acid. Mobile phase B consisted of acetonitrile containing 10 mM ammonium formate, pH 3.0 and supplemented with 0.1% (v/v) formic acid. 5 μL of each sample was injected onto a BEH Amide column (Waters Corporation, 2.1×50 mm, 1.7 μm). The gradient was set to: 100% mobile phase B at 0 min, decreasing linearly to 65% mobile phase B by 1.5 min, held constant at 65% mobile phase B until 2.5 min, ramped back up to 100% mobile phase B by 2.6 min, and held constant at 100% mobile phase B until 4.2 min. The flow rate was 0.6 mL/min. The dopamine was detected by using the mass spectrometer in multiple reaction monitoring (MRM) mode, quantifying the transition 154.1 to 137.0 m/z in positive mode. The fragmentor setting was 74, the collision energy was 9, and the cell accelerator voltage was 4, and the dwell time was 20. Tolbutamide was monitored using MRM and quantifying the transition of 271.1 to 91.0 m/z in positive mode. The fragmentor setting was 88, the collision energy was 37, and the cell accelerator voltage was 4, and the dwell time was 20.
The amount of dopamine was quantified by normalizing the area to the area of tolbutamide internal standard within each sample. This relative response was then compared to that of the standard curve to obtain the dopamine formed within each sample. The concentration of dopamine formed as a function of the inhibitor concentration at the preincubation stage was plotted in GraphPad Prism 8, and the IC50 was calculated using the non-linear fit for the standard IC50 curve equation “[inhibitor] vs response (three parameters).”

[2] = tested on: Enterococcus faecalis v583; test: Inhibition of E. faecalis decarboxylation activity in vitro (residual levodopa, LC-MS); assay type: cell-based
[3] = Enterococcus faecalis, V583, E. faecalis v583 culture in BHI broth pH 5 with 1.5 mM levodopa, 24 h at 37° C. anaerobic, read-out: IC50 @ 60 min
[4] = E. faecalis v583 culture in BHI broth pH 5 with 1.5 mM levodopa, 24 h at 37° C. anaerobic, read-out: IC50 @ 60 min

Compound	IC50 ([1]; read-out: IC50 @ 60 min)	IC50 ([1]; IC50 @ 60 min)	IC50 [2, 3]	further results
NC(CF)(Cc1ccc(O)c(Cl)c1)C(=O)O (stereo not drawn) [Compound L, 2-amino-2-(3-chloro-4-hydroxybenzyl)-3-fluoropropanoic Acid]	2.5 µM	–	–	–
CC(=O)NC(CF)(Cc1ccc(O)cc1)C(=O)O (stereo not drawn) [Compound Y, 2-acetamido-3-fluoro-2-(4-hydroxybenzyl)propanoic acid]	–	> 1000 µM	> 1000 µM	–
NC(CF)(Cc1ccc(O)cc1)C(=O)O (single isomer, unassigned) [T]	82.3 µM	–	–	IC50 [2, 4]: 18.5 µM
Cc1cc(CC(N)(CF)C(=O)O)ccc1O (stereo not drawn) [Compound N, 2-amino-3-fluoro-2-(4-hydroxy-3-methylbenzyl)propanoic Acid]	2.6 µM	–	–	–
NC(CF)(Cc1ccccc1)C(=O)O (stereo not drawn) [Compound Z, 2-amino-2-benzyl-3-fluoropropanoic Acid]	–	> 1000 µM	> 1000 µM	–
COC(=O)NC(CF)(Cc1ccc(O)cc1)C(=O)O (stereo not drawn) [Compound W, 3-fluoro-2-(4-hydroxybenzyl)-2-((methoxycarbonyl)amino)-propanoic Acid]	–	> 1000 µM	> 1000 µM	–
COC(=O)NC(C)(Cc1ccc(O)cc1)C(=O)O (stereo not drawn) [Compound V, 3-(4-hydroxyphenyl)-2-((methoxycarbonyl)amino)-2-methylpropanoic Acid]	–	> 1000 µM	> 1000 µM	–
CC(N)(Cc1ccc(O)c(O)c1)C(=O)O (stereo not drawn) [Compound Q, 2-amino-3-(3,4-dihydroxyphenyl)-2-methylpropanoic Acid]	–	> 1000 µM	> 1000 µM	–
NC(CF)(Cc1ccc(O)cc1)C(=O)O (single isomer, unassigned) [S]	4 µM	–	–	IC50 [2, 4]: 2 µM
2-amino-2-(fluoromethyl)-4-(4-hydroxyphenyl)butanoic acid [Compound U]	> 1000 µM	–	–	–
Cc1cc(CCN)ccc1O [Compound P, 4-(2-aminoethyl)-2-methylphenol]	–	> 1000 µM	–	IC50 ([2]; Enterococcus faecalis, V583, read-out: IC50 @ 60 min): > 1000 µM
NC(CF)(Cc1ccc(O)c(F)c1)C(=O)O (stereo not drawn) [Compound M, 2-amino-3-fluoro-2-(3-fluoro-4-hydroxybenzyl)propanoic Acid]	3.2 µM	–	–	–
NC(Cc1ccc(O)cc1)(C(=O)O)C(F)F (stereo not drawn) [Compound K, 2-amino-3,3-difluoro-2-(4-hydroxybenzyl)propanoic Acid]	–	–	–	IC50 @ 60 min [1]: Minor inhibition
NC(CF)(Cc1cccc(O)c1)C(=O)O (stereo not drawn) [Compound R, 2-amino-3-fluoro-2-(3-hydroxybenzyl)propanoic Acid]	–	–	> 1000 µM	IC50 @ 60 min [1]: Minor inhibition
CC(=O)NC(C)(Cc1ccc(O)cc1)C(=O)O (stereo not drawn) [Compound X, 2-acetamido-3-(4-hydroxyphenyl)-2-methylpropanoic Acid]	–	> 1000 µM	> 1000 µM	–
CCC(N)(Cc1ccc(O)cc1)C(=O)O (stereo not drawn) [O, 2-amino-2-(4-hydroxybenzyl)butanoic Acid]	–	> 1000 µM	> 1000 µM	–
